# Values of other authors in US9561285B2, “Carrier-linked carbamate prodrug linkers” (Ascendis Pharma AS, priority 2010, dated 2017).
# Settings: buffer, pH 7
smiles,measurement,value
O=C(Nc1ccccc1)Oc1ccc([N+](=O)[O-])cc1 [p-nitrophenyl-O—CO—NH-phenyl],half-life of hydrolysis,26 s
